In ChEMBL document CHEMBL5316334, “Structure-Based Design of Novel Alkynyl Thio-Benzoxazepinone Receptor-Interacting Protein Kinase-1 Inhibitors: Extending the Chemical Space from the Allosteric to ATP Binding Pockets” (J Med Chem, 2023):
Calls of active or inactive are those of the source. No cut-off for these calls is given here.

What was measured:
[1] = system: HT-29; test: Cytotoxicity against human HT-29 cells assessed as reduction in cell viability measured for 16 to 24 hrs by Cell-titer-glo assay; type: functional; details: time 16-24 hrs
[2] = system: HT-29; test: Cytotoxicity against human HT-29 cells assessed as reduction in cell viability at 100 uM measured for 16 to 24 hrs by Cell-titer-glo assay; type: functional, cell-based; details: time 16-24 hrs
[3] = system: HT-29; test: Anti-necroptosis activity against human HT-29 cells assessed as inhibition of TSZ-induced necroptosis preincubated for 30 mins followed by compound addition and measured for 16 hrs by Cell-titer-glo assay; type: functional, cell-based
[4] = target: T1, Receptor-interacting serine/threonine-protein kinase 1 (Homo sapiens, UniProt Q13546); test: Binding affinity to recombinant RIPK1 (unknown origin) assessed as dissociation constant by kinomescan assay
T1 sequence (Q13546 whole entry): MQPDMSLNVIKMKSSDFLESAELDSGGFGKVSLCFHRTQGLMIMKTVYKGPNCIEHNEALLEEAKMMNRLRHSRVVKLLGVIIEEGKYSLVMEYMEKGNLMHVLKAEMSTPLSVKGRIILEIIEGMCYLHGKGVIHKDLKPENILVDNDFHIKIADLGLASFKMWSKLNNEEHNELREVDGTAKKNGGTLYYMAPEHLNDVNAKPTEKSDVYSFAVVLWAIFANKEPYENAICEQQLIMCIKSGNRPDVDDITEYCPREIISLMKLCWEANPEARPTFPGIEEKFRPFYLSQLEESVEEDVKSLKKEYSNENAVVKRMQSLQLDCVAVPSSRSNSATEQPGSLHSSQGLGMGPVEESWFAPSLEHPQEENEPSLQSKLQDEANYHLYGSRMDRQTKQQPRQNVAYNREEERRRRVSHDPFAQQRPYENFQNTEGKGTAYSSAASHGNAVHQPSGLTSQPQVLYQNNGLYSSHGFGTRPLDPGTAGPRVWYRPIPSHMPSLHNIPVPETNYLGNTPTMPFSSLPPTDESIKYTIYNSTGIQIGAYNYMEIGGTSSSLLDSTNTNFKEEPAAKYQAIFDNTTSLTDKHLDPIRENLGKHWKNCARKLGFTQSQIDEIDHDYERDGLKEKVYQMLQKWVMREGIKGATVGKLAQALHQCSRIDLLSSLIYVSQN

[5] = Half life in mouse; type: ADME, organism-based; details: in vivo
[6] = system: HT-29; test: Anti-necroptosis activity against human HT-29 cells assessed as inhibition of TSZ-induced necroptosis pretreated with compound followed by TSZ induction and measured for 12 hrs by Cell-titer-glo assay; type: functional, cell-based; details: dose 0.63-100 nM
[7] = system: L929; test: Anti-necroptosis activity against TNFalpha-induced mouse L929 cells assessed as cell viability preincubated for 1 hr followed by TNFalpha stimulation and measured after 18 hrs by Cell-titer-glo assay; type: functional, cell-based

| SMILES | CC50 [1] | Activity [2] | EC50 [3] | Kd [4] | half-life [5] | Activity [6] | EC50 [7] |
| --- | --- | --- | --- | --- | --- | --- | --- |
| CN1C(=S)[C@@H](NC(=O)c2n[nH]c(Cc3ccccc3)n2)COc2ccc(C#Cc3cccc(F)c3)cc21 | > 100000 nM | inactive | 22.6 nM |  |  |  |  |
| COC(=O)c1ccc(C#Cc2ccc3c(c2)N(C)C(=S)[C@@H](NC(=O)c2n[nH]c(Cc4ccccc4)n2)CO3)cc1 | > 100000 nM | inactive | 5.8 nM | 83 nM |  |  |  |
| CN1C(=S)[C@@H](NC(=O)c2n[nH]c(Cc3ccccc3)n2)COc2ccc(C#CCc3ccccc3)cc21 | > 100000 nM | inactive | 14.3 nM |  |  |  |  |
| CN1C(=S)[C@@H](NC(=O)c2n[nH]c(Cc3ccccc3)n2)COc2ccc(C#Cc3ccc([N+](=O)[O-])cc3)cc21 | > 100000 nM | inactive | 6.8 nM | 150 nM |  |  |  |
| CN1C(=S)[C@@H](NC(=O)c2n[nH]c(Cc3ccccc3)n2)COc2ccc(C#Cc3ccc(OC(F)(F)F)cc3)cc21 | > 100000 nM | inactive | 10.4 nM |  |  |  |  |
| Cc1ccccc1C#Cc1ccc2c(c1)N(C)C(=S)[C@@H](NC(=O)c1n[nH]c(Cc3ccccc3)n1)CO2 | > 100000 nM | inactive | 23.3 nM |  |  |  |  |
| CN1C(=S)[C@@H](NC(=O)c2n[nH]c(Cc3ccccc3)n2)COc2ccc(C#Cc3ccccc3[N+](=O)[O-])cc21 | > 100000 nM | inactive | 15.1 nM |  |  |  |  |
| COc1ccc(C#Cc2ccc3c(c2)N(C)C(=S)[C@@H](NC(=O)c2n[nH]c(Cc4ccccc4)n2)CO3)cc1 | > 100000 nM | inactive | 299 nM |  |  |  |  |
| COC(=O)c1cccc(C#Cc2ccc3c(c2)N(C)C(=S)[C@@H](NC(=O)c2n[nH]c(Cc4ccccc4)n2)CO3)c1 | > 100000 nM | inactive | 10.8 nM | 160 nM |  |  |  |
| CN1C(=S)[C@@H](NC(=O)c2n[nH]c(Cc3ccccc3)n2)COc2ccc(C#Cc3ccccc3C(F)(F)F)cc21 | > 100000 nM | inactive | 41.3 nM |  |  |  |  |
| CN1C(=O)C(Cc2c[nH]c3ccccc23)NC1=S (stereo unspecified) [NECROSTATIN] |  |  |  |  | < 5 min |  |  |
| COC(=O)c1ccccc1C#Cc1ccc2c(c1)N(C)C(=S)[C@@H](NC(=O)c1n[nH]c(Cc3ccccc3)n1)CO2 | > 100000 nM | inactive | 32.9 nM |  |  |  |  |
| CN1C(=S)[C@@H](NC(=O)c2n[nH]c(Cc3ccccc3)n2)COc2ccc(C#Cc3ccc(Cl)cc3)cc21 | > 100000 nM | inactive | 31.3 nM |  |  |  |  |
| Cc1cccc(C#Cc2ccc3c(c2)N(C)C(=S)[C@@H](NC(=O)c2n[nH]c(Cc4ccccc4)n2)CO3)c1 | > 100000 nM | inactive | 27.6 nM |  |  |  |  |
| CN1C(=S)[C@@H](NC(=O)c2n[nH]c(Cc3ccccc3)n2)COc2ccc(C#Cc3ccccc3OC(F)(F)F)cc21 | > 100000 nM | inactive | 36.2 nM |  |  |  |  |
| CN1C(=S)[C@@H](NC(=O)c2n[nH]c(Cc3ccccc3)n2)COc2ccc(C#Cc3ccc(C#N)cc3)cc21 | > 100000 nM | inactive | 6.3 nM | 92 nM |  |  |  |
| Cc1ccc(C#Cc2ccc3c(c2)N(C)C(=S)[C@@H](NC(=O)c2n[nH]c(Cc4ccccc4)n2)CO3)cc1 | > 100000 nM | inactive | 17.4 nM |  |  | Dose-Dependent Effect |  |

| SMILES | CC50 [1] | Activity [2] | EC50 [3] | Kd [4] | half-life [5] | Activity [6] | EC50 [7] |
| --- | --- | --- | --- | --- | --- | --- | --- |
| CN1C(=O)[C@@H](NC(=O)c2n[nH]c(Cc3ccccc3)n2)COc2ccc(N3CC4(CCOCC4)C3)cc21 |  |  |  |  |  |  | < 1 nM |
| CN1C(=S)[C@@H](NC(=O)c2n[nH]c(Cc3ccccc3)n2)COc2ccc(C#Cc3ccccc3F)cc21 | > 100000 nM | inactive | 32.3 nM |  |  |  |  |
| CN1C(=S)[C@@H](NC(=O)c2n[nH]c(Cc3ccccc3)n2)COc2ccc(C#C[Si](C)(C)C)cc21 | > 100000 nM | inactive | 20.5 nM |  |  |  |  |
| CN1C(=S)[C@@H](NC(=O)c2n[nH]c(Cc3ccccc3)n2)COc2ccc(C#Cc3cccc(OC(F)(F)F)c3)cc21 | > 100000 nM | inactive | 27 nM |  |  |  |  |
| CN1C(=S)[C@@H](NC(=O)c2n[nH]c(Cc3ccccc3)n2)COc2ccc(C#Cc3ccccc3Cl)cc21 | > 100000 nM | inactive | 14 nM |  |  |  |  |
| COc1ccccc1C#Cc1ccc2c(c1)N(C)C(=S)[C@@H](NC(=O)c1n[nH]c(Cc3ccccc3)n1)CO2 | > 100000 nM | inactive | 10.7 nM |  |  |  |  |
| COc1cccc(C#Cc2ccc3c(c2)N(C)C(=S)[C@@H](NC(=O)c2n[nH]c(Cc4ccccc4)n2)CO3)c1 | > 100000 nM | inactive | 11.1 nM |  |  |  |  |
| CN1C(=S)[C@@H](NC(=O)c2n[nH]c(Cc3ccccc3)n2)COc2ccc(C#Cc3cccc([N+](=O)[O-])c3)cc21 | > 100000 nM | inactive | 9.2 nM | 230 nM |  |  |  |
| CN1C(=S)[C@@H](NC(=O)c2n[nH]c(Cc3ccccc3)n2)COc2ccc(C#Cc3ccccc3C#N)cc21 | > 100000 nM | inactive | 7.7 nM | 78 nM |  |  |  |
| CN1C(=S)[C@@H](NC(=O)c2n[nH]c(Cc3ccccc3)n2)COc2ccc(C#CC3CC3)cc21 | > 100000 nM |  | 8.7 nM | 40 nM |  |  |  |
| CN1C(=S)[C@@H](NC(=O)c2n[nH]c(Cc3ccccc3)n2)COc2ccc(C#Cc3ccc(F)cc3)cc21 | > 100000 nM | inactive | 22.5 nM |  |  |  |  |
| CN1C(=S)[C@@H](NC(=O)c2n[nH]c(Cc3ccccc3)n2)COc2ccc(C#Cc3cccc(Cl)c3)cc21 | > 100000 nM | inactive | 23.9 nM |  |  |  |  |
| CN1C(=S)[C@@H](NC(=O)c2n[nH]c(Cc3ccccc3)n2)COc2ccc(C#Cc3ccc(C(F)(F)F)cc3)cc21 | > 100000 nM | inactive | 25.5 nM |  |  |  |  |
| CN1C(=S)[C@@H](NC(=O)c2n[nH]c(Cc3ccccc3)n2)COc2ccc(C#Cc3cccc(C(F)(F)F)c3)cc21 | > 100000 nM | inactive | 47.8 nM |  |  |  |  |
| CN1C(=O)[C@@H](NC(=O)c2nnc(Cc3ccccc3)[nH]2)COc2ccc(C#CC(C)(C)O)cc21 [OCADUSERTIB] |  |  |  |  |  |  | < 1 nM |
| CN1C(=S)[C@@H](NC(=O)c2n[nH]c(Cc3ccccc3)n2)COc2ccc(C#Cc3ccccc3)cc21 | > 100000 nM | inactive | 12.7 nM |  |  |  |  |
| CN1C(=S)[C@@H](NC(=O)c2n[nH]c(Cc3ccccc3)n2)COc2ccccc21 | > 100000 nM |  |  |  |  |  |  |
